{"source": "patent US8637461B2", "about": "“Method of diagnosing and treating oxidative stress-impaired wound healing” (Kuwait University, priority 2011, dated 2014)", "key": {"Akt [1]": {"tested_on": "Akt", "experiment": "Akt phosphorylation, FACE cell-based ELISA in fixed fibroblasts", "set-up": "species or system rat", "details": "normal fibroblasts exposed to IGF-1", "description": "(§1) Primary dermal fibroblasts were obtained from dorsal skin of female Goto Kakizaki (GK, age 12-15 months) rats, a model for non-obese type 2 diabetes, and their Wistar control counterparts. After sterilization in povidine solution, rat skin was washed in sterile water and rinsed in 70% ethanol in PBS. Epidermis and dermis were separated following overnight incubation in 0.25% trypsine/EDTA at 4 C. Dermis was cut into small pieces and incubated in Dulbecco's modified Eagle medium (DMEM; Invitrogen) containing collagenase (250 U/ml; Sigma) for thirty min at 37 C in 5% CO2 with constant agitation. The sections were triturated vigorously to release fibroblasts, which were collected by centrifugation. […]\n(§2) A hypercortisolemic state was mimicked by exposing control fibroblasts to dexamethasone (Dexa, Sigma) administered at 20 ng/ml every other day for a duration of 8 days. […] The concentration of IGF-1 (50 ng/ml, Peprotech) was determined by prior dose response experiment.\nActivation of Akt and JNK was analyzed in fixed fibroblasts using FACE-Akt and FACE-JNK (both from Active Motife). […] Labeling with antibodies was conducted according to the manufacturer's protocol and the resulting phosphoantibody signal was calculated after correction for number of cells and total Akt or JNK levels in each sample. […]"}, "dermal fibroblasts [2]": {"tested_on": "dermal fibroblasts", "experiment": "BrdU cell proliferation assay in fibroblasts", "type": "cell-based, rat", "description": "(§3) Primary dermal fibroblasts were obtained from dorsal skin of female Goto Kakizaki (GK, age 12-15 months) rats, a model for non-obese type 2 diabetes, and their Wistar control counterparts. After sterilization in povidine solution, rat skin was washed in sterile water and rinsed in 70% ethanol in PBS. Epidermis and dermis were separated following overnight incubation in 0.25% trypsine/EDTA at 4 C. Dermis was cut into small pieces and incubated in Dulbecco's modified Eagle medium (DMEM; Invitrogen) containing collagenase (250 U/ml; Sigma) for thirty min at 37 C in 5% CO2 with constant agitation. The sections were triturated vigorously to release fibroblasts, which were collected by centrifugation. The cell pellet was washed two times with PBS, re-suspended in complete medium (DMEM supplemented with 10% fetal calf serum, penicillin (100 U/ml), streptomycin (100 μg/ml)), 2 mM L-glutamine and 10 mM HEPES) and then cultured under a standard condition.\nas §2, with “days. Similarly, the state of low-grade inflammation in fibroblasts was recapitulated experimentally by exposing these cells to TNF-α (4 ng/ml every day for 4 days).” for “days.”\n(§4) The proliferation and collagen synthesis of cultured fibroblasts were determined using, respectively the 5-bromo-2-deoxyuridine (BrdU) incorporation into DNA and a radiolabelled proline uptake assay.\nCells were seeded into 96-microtiter plates at a concentration of 1.5×10^4 and allowed to adhere overnight in DMEM supplemented with 10% FCS. After arrest by incubation in DMEM supplemented with 0.5% FCS for 24 hrs, cells were exposed to IGF-I (50 ng/ml) in DMEM containing […] 5-bromo-2-deoxyuridine (BrdUrd). Incorporation of BrdUrd into DNA was estimated using 5-bromo-2-deoxyuridine labeling and detection kit (Roche Applied Science) according to the manufacturer's instructions."}, "[3]": {"details": "diabetic patients, cited from earlier work"}, "dermal fibroblasts [4]": {"tested_on": "dermal fibroblasts", "experiment": "Radiolabelled proline uptake assay (collagen synthesis) in fibroblasts", "type": "cell-based, rat", "details": "control fibroblasts, IGF-1", "description": "as §1, §2, §4\nA radiolabel proline uptake assay was used in the quantification of the rate of collagen synthesis in cultured fibroblasts derived from various experimental groups. […]"}, "PI3K-p85α / IRS-1": {"tested_on": "PI3K-p85α / IRS-1", "experiment": "Co-precipitation of PI3K p85α with IRS-1 in dermal fibroblasts", "type": "cell-based, rat", "details": "fibroblasts exposed to IGF-1", "description": "as §1, §2\n(§5) Levels/activities of key intracellular molecules in the IGF-1 signaling cascade including IRS-1, IRS-1 Tyr-p-612, PI3K-p85α, IRS-1 Ser-p (307), PI3K, Akt, p-Akt, INK and p-JNK were assessed using western blotting/immunoprecipitation and commercially available ELISA-based assays. […]"}, "[5]": {"experiment": "Rapid insulin sensitivity test (RIST) with IGF-1 instead of insulin", "type": "in vivo, rat", "description": "(§6) All animal procedures were performed in accordance with the NIH Guidance for the Care and Use of Laboratory Animals. The current study used, respectively the GK and Dexamethasone-treated rats as models for diabetes and hypercortisolemia. Dexamethasone was administered subcutaneously at a dose of 2.5 μg/kg body weight in the morning (8:00 AM) and in the evening (8:00 PM) for a duration of four weeks before wounding and this form of therapy continued during the course of healing. […] Weight and age-matched female Wistar rats (Kuwait University breeding colony) served as the corresponding controls. All of the animals were maintained under standard conditions with 12 hours on/off light cycle, commercial diet, and water ad libitum. GK rats destined for wounding were initially matched with regard to body weight (e.g., 230 to 250 g), and plasma levels of glucose, free fatty acids and insulin. These indices are commonly used to reflect the severity of the diabetic state.\n(§7) Animals used for IGF-1 sensitivity (n=6/group) and wound healing (n=8) studies were partitioned into five study groups including control, diabetic, hypercortisolemic, diabetic+EUK and hypercortisolemic+EUK. The EUK-134 was administered for duration of four weeks before wound induction and it continued during the course of healing.\nIGF-1 sensitivity in control, diabetic and hypercortisolemic animals was determined using the rapid insulin sensitivity test (RIST) with IGF-1 (200 μg/kg BW) infused instead of insulin. The RIST index is the amount of glucose per kg body weight required to maintain euglycemia following a bolus of insulin (50 mU/kg BW)."}, "IRS-1": {"tested_on": "IRS-1", "experiment": "IRS-1 Tyr612 phosphorylation, immunoprecipitation/western blotting in dermal fibroblasts", "type": "cell-based, rat", "description": "as §3\nas §2, with “days. Similarly, the state of low-grade inflammation in fibroblasts was recapitulated experimentally by exposing these cells to TNF-α (4 ng/ml every day for 4 days).” for “days.”\nLevels/activities of key intracellular molecules in the IGF-1 signaling cascade including IRS-1, IRS-1 Tyr-p-612, PI3K-p85α, IRS-1 Ser-p (307), PI3K, Akt, p-Akt, INK and p-JNK were assessed using western blotting/immunoprecipitation and commercially available ELISA-based assays.\nIce-cold radioimmunoprecipitation assay (RIPA) buffer was used for the extraction of proteins from fibroblasts. Immunoprecipitation was achieved by incubating cell homogenates with anti-IRS-1 antibody overnight at 4° C. followed by the addition of protein A/G-Agarose for additional two hours. Immunoprecipitates were separated using spin-collection filters (Cytosignal), washed once with RIPA buffer/3× with PBS and then elutated by the addition of Laemmli buffer. […] Antigen-antibody complexes were visualized by an enhanced chemiluminescence system on BioMax Light Film (Kodack) and then the densitometry was analyzed using Quantity One 1-D image software (BioRad, GS 800). All densitometry data were corrected for equal loading using the house keeping gene β-actin and they were expressed as fold change vs. control."}, "Akt [6]": {"tested_on": "Akt", "experiment": "Akt phosphorylation, western blotting in dermal fibroblasts", "type": "cell-based, rat", "details": "normal fibroblasts exposed to IGF-1; western blot", "description": "as §1, §2, §5"}, "PI3K": {"tested_on": "PI3K", "experiment": "PI3K ELISA kinase assay on fibroblast lysates", "type": "cell-based, rat", "details": "fibroblasts exposed to IGF-1", "description": "as §3, §2\nPI3K activity was measured using PI3K ELISA (Echelon Biosciences Inc). […]"}, "[7]": {"experiment": "Body weight and fasting plasma parameters in diabetic and hypercortisolemic rats", "type": "in vivo, rat", "description": "as §6, §7"}, "excisional wounds": {"tested_on": "excisional wounds", "experiment": "Full-thickness excisional wound healing, 7 days", "type": "in vivo, rat", "details": "diabetic/hypercortisolemic rat wounds, antioxidant administered", "description": "as §6, §7\nAnimals derived from various experimental groups were anesthetized by ip, injection of 90 mg ketamine+10 mg xylazine/kg body weight, and their back skin was shaved, depilated with Nair and cleaned with 70% alcohol. Six bilateral full-thickness excisional wounds (8 mm in diameter) at equidistant from midline were created on the dorso-rostral back skin. Wounds were separated by a minimum of 1 cm of uninjured skin. […] The wound area was analyzed using Adobe PhotoShop (version 7.0; Adobe Systems) and the percentage of wound closure was derived by the following formula: (1−[current wound size/initial wound size])×100."}, "[8]": {"tested_on": "reactive oxygen species (ROS)", "experiment": "ROS generation in cultured fibroblasts (DCF-DA)", "type": "cell-based, rat", "details": "fibroblasts with diabetic, inflammatory or hypercortisolemia phenotypes; ROS suppressors", "description": "as §3\nas §2, with “days. Similarly, the state of low-grade inflammation in fibroblasts was recapitulated experimentally by exposing these cells to TNF-α (4 ng/ml every day for 4 days).” for “days.”\nROS generation in cultured fibroblasts was evaluated using dichloroflurescein-diacetate (DCF-DA, Molecular Probes), a probe that is oxidized to the fluorescent product DCF upon exposure to hydrogen peroxide, peroxynitrite, hydroxyl radical and nitric oxide. Its concentration serves as an indicator of the overall degree of intracellular oxidative stress.\nCells seeded in 96-well plates were incubated for thirty minutes at 37 C in serum free media containing 5 μM of DCF-DA. The plates were then washed twice with Krebs Ringer Buffer (KR) and the fluorescence readings were taken every 15 min for 1 hr at Ex=485 and Em=530. Subtracted background values were obtained from wells containing DCF-DA without cells. […]"}, "[9]": {"details": "Wistar rats, dexamethasone 2.5 μg/kg sc twice daily (hypercortisolemia model)"}, "[10]": {"details": "fibroblasts with diabetic, inflammatory or hypercortisolemia phenotypes, ROS suppressors"}}, "data": [{"molecule": "IGF-1", "values": [{"measurement": "Akt phosphorylation", "setting": "Akt [1]", "value": "phosphorylated (activated)"}, {"measurement": "increase in BrdU incorporation compared with medium only control", "setting": "dermal fibroblasts [2]; control fibroblasts, IGF-1 50 ng/ml, 24 hours", "value": "~5", "unit": "fold"}, {"measurement": "reduction of IGF-1 action in inducing DNA synthesis", "setting": "dermal fibroblasts [2]; diabetic fibroblasts", "value": "about 46%"}, {"measurement": "reduction of IGF-1 action in inducing DNA synthesis", "setting": "dermal fibroblasts [2]; hypercortisolemic fibroblasts", "value": "~36", "unit": "%"}, {"measurement": "glucose metabolism response to IGF-1", "setting": "[3]; 26 pmol continuous infusion", "value": "virtually no response"}, {"measurement": "decrease of response to IGF-1 relative to healthy adults", "setting": "[3]; 52 pmol continuous infusion", "value": "~40", "unit": "%"}, {"measurement": "increase in collagen synthesis", "setting": "dermal fibroblasts [4]", "value": "about 63%"}, {"measurement": "PI3K activation (p85α co-precipitated with IRS-1)", "setting": "PI3K-p85α / IRS-1", "value": "activates PI3K"}, {"measurement": "glucose metabolized in response to bolus injection of IGF-1 (RIST)", "setting": "[5]; rats with diabetic complications or chemically-induced hypercortisolemia", "value": "about 125 mg glucose per kg body weight"}, {"measurement": "glucose metabolized in response to bolus injection of IGF-1 (RIST)", "setting": "[5]; untreated rats", "value": 175, "unit": "mg glucose per kg"}, {"measurement": "phosphorylation of Tyr612 on IRS-1", "setting": "IRS-1; control fibroblasts exposed to IGF-1 (50 ng/ml)", "value": "induces rapid phosphorylation"}, {"measurement": "Akt phosphorylation", "setting": "Akt [6]", "value": "phosphorylated (activated)"}, {"measurement": "PI3K enzymatic activity", "setting": "PI3K", "value": "increases PI3K enzymatic activity"}]}, {"molecule": "C[C@@H]1C[C@H]2[C@@H]3CCC4=CC(=O)C=C[C@]4(C)[C@@]3(F)[C@@H](O)C[C@]2(C)[C@@]1(O)C(=O)CO", "note": "[Dexa, dexamethasone]", "values": [{"measurement": "FBG (fasting blood glucose)", "setting": "[7]; [9]", "value": "78 ± 9", "unit": "mg/dL"}, {"measurement": "FFA (free fatty acid)", "setting": "[7]; [9]", "value": "706 ± 25", "unit": "µM"}, {"measurement": "FPI (fasting plasma insulin)", "setting": "[7]; [9]", "value": "0.78 ± 0.061", "unit": "ng/mL"}]}, {"molecule": "O=C(O)CCCCC1CCSS1", "note": "(stereo not drawn) [α-lipoic acid]", "values": [{"measurement": "impairment in key fibroblast functions (collagen synthesis, cell proliferation, migration, contraction)", "setting": "dermal fibroblasts [2]; [10]", "value": "ameliorates"}, {"measurement": "healing rates of wounds", "setting": "excisional wounds", "value": "statistically indistinguishable from control rat wounds treated with IGF-1 alone"}, {"measurement": "improvement of glucose metabolism in response to bolus injection of IGF-1", "setting": "[5]; diabetic/hypercortisolemic rats, chronic administration of antioxidant", "value": "about 20%"}, {"measurement": "abnormalities regarding lipid and carbohydrate profiles", "setting": "[7]; diabetic and hypercortisolemic rats, chronic treatment with ROS suppressors", "value": "ameliorated"}, {"measurement": "common defect in IGF-1 signaling", "setting": "IRS-1; [10]", "value": "correct the common defect in IGF-1 signaling"}, {"measurement": "HSOS (oxidative stress)", "setting": "[8]", "value": "lessen the HSOS"}]}]}
